Source: US8450313B2, “2,3-diaryl- or heteroaryl-substituted 1,1,1-trifluoro-2-hydroxypropyl compounds” (Hoffmann-La Roche Inc., priority 2009, dated 2013)
pKi: −log10 of the molar value.

biological target: T1, full length human recombinant glucocorticoid receptor (Homo sapiens, UniProt P04150); experiment: Glucocorticoid Receptor Binding Assay (Glucocorticoid Receptor Competitor Assay far red kit, fluorescence polarization); conditions: competition with fluorescent GR ligand Fluormone GS Far Red, 3 hours at 22° C., pH 7.4; Ki calculated from IC50 by Cheng-Prusoff
T1 construct: It contains some partially purified full length human recombinant glucocorticoid receptor; purchased Panvera/Invitrogen PV4302
T1 sequence (P04150 1-777): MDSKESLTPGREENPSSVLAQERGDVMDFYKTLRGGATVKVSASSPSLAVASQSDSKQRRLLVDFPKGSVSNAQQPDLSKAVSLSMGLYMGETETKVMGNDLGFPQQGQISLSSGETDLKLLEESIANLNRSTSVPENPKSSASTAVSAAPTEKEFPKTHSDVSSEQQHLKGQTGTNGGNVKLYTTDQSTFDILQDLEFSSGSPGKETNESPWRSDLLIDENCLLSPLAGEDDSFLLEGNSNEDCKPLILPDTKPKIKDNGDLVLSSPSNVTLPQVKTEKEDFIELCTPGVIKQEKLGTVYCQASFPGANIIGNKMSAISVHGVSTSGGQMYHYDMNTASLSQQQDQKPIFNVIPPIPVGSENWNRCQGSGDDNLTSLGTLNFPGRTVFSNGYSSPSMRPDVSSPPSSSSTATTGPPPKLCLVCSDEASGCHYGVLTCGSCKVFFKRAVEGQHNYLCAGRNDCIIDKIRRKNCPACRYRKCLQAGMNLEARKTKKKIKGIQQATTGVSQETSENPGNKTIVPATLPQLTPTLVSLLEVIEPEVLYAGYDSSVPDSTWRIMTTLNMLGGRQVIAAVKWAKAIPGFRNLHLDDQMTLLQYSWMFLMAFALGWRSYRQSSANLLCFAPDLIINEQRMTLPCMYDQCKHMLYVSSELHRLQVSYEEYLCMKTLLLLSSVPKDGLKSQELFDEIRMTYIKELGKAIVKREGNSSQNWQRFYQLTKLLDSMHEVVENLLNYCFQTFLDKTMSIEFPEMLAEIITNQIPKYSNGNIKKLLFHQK
Experimental: Glucocorticoid Receptor Binding Assay
The ability of the substances to bind to the glucocorticoid receptor was determined with the help of a commercial Glucocorticoid Receptor Competitor Assay far red kit provided by Panvera/Invitrogen (PV4302). This kit is used as provided by the supplier. It contains some partially purified full length human recombinant glucocorticoid receptor, a coactivator related GR stabilizing peptide, a tight-binding fluorescent GR ligand Fluormone™ GS Far Red as labeled tracer and a screening buffer. All reagents are prepared and the assay is run according to the recommendations of the kit manufacturer.
Briefly, the GR stabilizing peptide and the human recombinant glucocorticoid receptor are both diluted with the screening buffer (pH 7.4) and are gently mixed (no vortexing) just before the assay and kept on ice until use. The fluorescent-labeled ligand is also diluted with the screening buffer just before the assay and kept on ice until use. The substances to test are pre-diluted in pure DMSO then some water is added to get an intermediate 4.2% DMSO stock solution. Ten microliter of the intermediate stock solution is gently mixed with 5 μA of diluted fluorescent-labeled ligand and 5 μl of diluted human recombinant glucocorticoid receptor in a 384-well plate (low volume, ultraclear, glass plate from Greiner ref 788896). The plate is centrifuged, sealed and incubated for 3 hours at 22° C. in the dark. The polarized fluorescence is measured with a Zeiss-HTS reader or any equivalent equipment (610-660 nm).
All compounds were tested to determine IC50 in a serial dilution experiment. The concentration at which 50% inhibition of the fluorescent GR ligand Fluormone™ GS Far Red is obtained (the IC50) is determined after fitting with a sigmoidal dose-response model of a plot of the logarithm of the concentration versus percent inhibition measured for the different concentrations. Ki's were calculated from IC50 based on Cheng-Prusoff equation (Cheng, Y, Prusoff, W H (1973) Biochem Pharmacol 22, 3099-3108): Ki=IC50/[1+D/Kd] wherein D is the concentration of the fluorescent ligand and Kd is the binding constant for the fluorescent ligand binding to the receptor under the conditions used in the competition experiment.

| SMILES | pKi |
| --- | --- |
| C[C@H](c1ccc(Oc2cnc(C(=O)O)cn2)cc1Cl)[C@@](O)(c1ccc2c(c1)N(C)C(=O)CO2)C(F)(F)F (racemic) [Example 228, 5-{3-Chloro-4-[3,3,3-trifluoro-2-hydroxy-1-methyl-2-(4-methyl-3-oxo-3,4-dihydro-2H-benzo[1,4]oxazin-6-yl)-propyl]-phenoxy}-pyrazine-2-carboxylic acid] | 7.97 |
| CCOC(=O)c1cccc(Oc2ccc(Cl)c([C@H](C)[C@](O)(c3ccc4c(c3)N(C)C(=O)CO4)C(F)(F)F)c2)c1 (relative stereo) [Example 5, 3-{4-Chloro-3-[3,3,3-trifluoro-2-hydroxy-1-methyl-2-(4-methyl-3-oxo-3,4-dihydro-2H-benzo[1,4]oxazin-6-yl)-propyl]-phenoxy}-benzoic acid ethyl ester] | 8.12 |
| COC(=O)c1ccc(Oc2ccc(Cl)c([C@H](C)[C@](O)(c3ccc4c(c3)N(C)C(=O)CO4)C(F)(F)F)c2)cc1Cl (relative stereo) [Example 9, 2-Chloro-4-{4-chloro-3-[3,3,3-trifluoro-2-hydroxy-1-methyl-2-(4-methyl-3-oxo-3,4-dihydro-2H-benzo[1,4]oxazin-6-yl)-propyl]-phenoxy}-benzoic acid methyl ester] | 8.05 |
| C[C@@H](c1cc(Oc2ccc(C(=O)O)c(Cl)c2)ccc1Cl)[C@](O)(c1ccc2c(c1)N(C)C(=O)CO2)C(F)(F)F (relative stereo) [Example 10, 2-Chloro-4-{4-chloro-3-[3,3,3-trifluoro-2-hydroxy-1-methyl-2-(4-methyl-3-oxo-3,4-dihydro-2H-benzo[1,4]oxazin-6-yl)-propyl]-phenoxy}-benzoic acid] | 8.43 |
| C[C@@H](c1cc(Oc2ccc(F)c(C(=O)O)c2)ccc1Cl)[C@](O)(c1ccc2c(c1)N(C)C(=O)CO2)C(F)(F)F (relative stereo) [Example 11, 5-{4-Chloro-3-[3,3,3-trifluoro-2-hydroxy-1-methyl-2-(4-methyl-3-oxo-3,4-dihydro-2H-benzo[1,4]oxazin-6-yl)-propyl]-phenoxy}-2-fluoro-benzoic acid] | 8.62 |
| C[C@@H](c1cc(Oc2cccc(CC(=O)O)c2)ccc1Cl)[C@](O)(c1ccc2c(c1)N(C)C(=O)CO2)C(F)(F)F (relative stereo) [Example 12, (3-{4-Chloro-3-[3,3,3-trifluoro-2-hydroxy-1-methyl-2-(4-methyl-3-oxo-3,4-dihydro-2H-benzo[1,4]oxazin-6-yl)-propyl]-phenoxy}-phenyl)-acetic acid] | 8.10 |
| COC(=O)c1ccc(Oc2ccc(Cl)c([C@H](C)[C@](O)(c3ccc4c(c3)N(C)C(=O)CO4)C(F)(F)F)c2)cc1F (relative stereo) [Example 13, 4-{4-Chloro-3-[3,3,3-trifluoro-2-hydroxy-1-methyl-2-(4-methyl-3-oxo-3,4-dihydro-2H-benzo[1,4]oxazin-6-yl)-propyl]-phenoxy}-2-fluoro-benzoic acid methyl ester] | 8.27 |
| C[C@@H](c1cc(Oc2ccc(C(=O)O)c(F)c2)ccc1Cl)[C@](O)(c1ccc2c(c1)N(C)C(=O)CO2)C(F)(F)F (relative stereo) [Example 14, 4-{4-Chloro-3-[3,3,3-trifluoro-2-hydroxy-1-methyl-2-(4-methyl-3-oxo-3,4-dihydro-2H-benzo[1,4]oxazin-6-yl)-propyl]-phenoxy}-2-fluoro-benzoic acid] | 8.41 |
| C[C@@H](c1cc(Oc2ccc(Cl)c(C(=O)O)c2)ccc1Cl)[C@](O)(c1ccc2c(c1)N(C)C(=O)CO2)C(F)(F)F (relative stereo) [Example 15, 2-Chloro-5-{4-chloro-3-[3,3,3-trifluoro-2-hydroxy-1-methyl-2-(4-methyl-3-oxo-3,4-dihydro-2H-benzo[1,4]oxazin-6-yl)-propyl]-phenoxy}-benzoic acid] | 8.43 |
| C[C@@H](c1cc(Oc2ccc(C(=O)O)cc2F)ccc1Cl)[C@](O)(c1ccc2c(c1)N(C)C(=O)CO2)C(F)(F)F (relative stereo) [Example 16, 4-{4-Chloro-3-[3,3,3-trifluoro-2-hydroxy-1-methyl-2-(4-methyl-3-oxo-3,4-dihydro-2H-benzo[1,4]oxazin-6-yl)-propyl]-phenoxy}-3-fluoro-benzoic acid] | 8.60 |
| C[C@@H](c1cc(-c2cccc(C(=O)O)c2)ccc1Cl)[C@](O)(c1ccc2c(c1)N(C)C(=O)CO2)C(F)(F)F (relative stereo) [Example 18, 4′-Chloro-3′-[3,3,3-trifluoro-2-hydroxy-1-methyl-2-(4-methyl-3-oxo-3,4-dihydro-2H-benzo[1,4]oxazin-6-yl)-propyl]-biphenyl-3-carboxylic acid] | 6.22 |
| C[C@@H](c1ccc(-c2ccccc2C(=O)O)cc1Cl)[C@](O)(c1ccc2c(c1)N(C)C(=O)CO2)C(F)(F)F (relative stereo) [Example 24, 3′-Chloro-4′-[3,3,3-trifluoro-2-hydroxy-1-methyl-2-(4-methyl-3-oxo-3,4-dihydro-2H-benzo[1,4]oxazin-6-yl)-propyl]-biphenyl-2-carboxylic acid] | 7.71 |

Further lines, results first:

| pKi | SMILES |
| --- | --- |
| 8.70 | C[C@@H](c1cc(OCc2ccc(C(=O)O)cc2)ccc1Cl)[C@](O)(c1ccc2c(c1)N(C)C(=O)CO2)C(F)(F)F (relative stereo) [Example 2, 4-{4-Chloro-3-[3,3,3-trifluoro-2-hydroxy-1-methyl-2-(4-methyl-3-oxo-3,4-dihydro-2H-benzo[1,4]oxazin-6-yl)-propyl]-phenoxymethyl}-benzoic acid] |
| 6.37 | C[C@@H](c1cc(OCC(=O)O)ccc1Cl)[C@](O)(c1ccc2c(c1)N(C)C(=O)CO2)C(F)(F)F (relative stereo) [Example 4, {4-Chloro-3-[3,3,3-trifluoro-2-hydroxy-1-methyl-2-(4-methyl-3-oxo-3,4-dihydro-2H-benzo[1,4]oxazin-6-yl)-propyl]-phenoxy}-acetic acid] |
| 7.95 | COC(=O)c1ccc(Oc2ccc(Cl)c([C@H](C)[C@](O)(c3ccc4c(c3)N(C)C(=O)CO4)C(F)(F)F)c2)cc1 (relative stereo) [Example 7, 4-{4-Chloro-3-[3,3,3-trifluoro-2-hydroxy-1-methyl-2-(4-methyl-3-oxo-3,4-dihydro-2H-benzo[1,4]oxazin-6-yl)-propyl]-phenoxy}-benzoic acid methyl ester] |
| 7.97 | C[C@@H](c1cc(Oc2ccc(C(=O)O)cc2)ccc1Cl)[C@](O)(c1ccc2c(c1)N(C)C(=O)CO2)C(F)(F)F (relative stereo) [Example 8, 4-{4-Chloro-3-[3,3,3-trifluoro-2-hydroxy-1-methyl-2-(4-methyl-3-oxo-3,4-dihydro-2H-benzo[1,4]oxazin-6-yl)-propyl]-phenoxy}-benzoic acid] |
| 7.25 | C[C@@H](c1cc(-c2ccc(C(=O)O)cc2)ccc1Cl)[C@](O)(c1ccc2c(c1)N(C)C(=O)CO2)C(F)(F)F (relative stereo) [Example 17, 4′-Chloro-3′-[3,3,3-trifluoro-2-hydroxy-1-methyl-2-(4-methyl-3-oxo-3,4-dihydro-2H-benzo[1,4]oxazin-6-yl)-propyl]-biphenyl-4-carboxylic acid] |
| 6.67 | COC(=O)CC1CCN(C(=O)c2ccc(Cl)c([C@H](C)[C@](O)(c3ccc4c(c3)N(C)C(=O)CO4)C(F)(F)F)c2)CC1 (relative stereo) [Example 19, (1-{4-Chloro-3-[3,3,3-trifluoro-2-hydroxy-1-methyl-2-(4-methyl-3-oxo-3,4-dihydro-2H-benzo[1,4]oxazin-6-yl)-propyl]-benzoyl}-piperidin-4-yl)-acetic acid methyl ester] |
